Measured values from PubChem BioAssay AID1919014 (Molecular Pharmacology Branch, DTP, NCI, 2023).
Values joined by “and” are separate entries in the source; they are usually repeats but may differ in a detail not shown here. Equal values may be shown once. Each block holds one compound with its values, some of them ahead of it.

System: NCI-H1341 complex spheroids, percent test/control
Experiment: Anticancer human tumor NCI-H1341 cell line growth inhibition [AhR];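 also: spheroids exposed to agents for seven days before readout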
Conditions: for viability, T/C: stronger effect = lower value
How it was run: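 Complex tumor spheroids co-cultured with HUVEC and human MSC stroma; AhR antagonists tested in combination with standard-of-care and investigational agents. Top concentration at or near clinical Cmax (else 10 microM), half-log dilutions; growth expressed as percent test/control.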

[1] = curve of first compound, second compound 0.1 µM
[2] = curve of first compound, second compound 0.316 µM
[3] = curve of first compound, second compound 1 µM
[4] = curve of first compound, second compound 3.16 µM
[5] = curve of first compound, second compound 10 µM
[6] = second compound 0.1 µM, first compound 0.0316 µM
[7] = second compound 0.1 µM, first compound 0.1 µM
[8] = second compound 0.1 µM, first compound 0.316 µM
[9] = second compound 0.1 µM, first compound 1 µM
[10] = second compound 0.316 µM, first compound 0.0316 µM
[11] = second compound 0.316 µM, first compound 0.1 µM
[12] = second compound 0.316 µM, first compound 0.316 µM
[13] = second compound 0.316 µM, first compound 1 µM
[14] = second compound 1 µM, first compound 0.0316 µM
[15] = second compound 1 µM, first compound 0.1 µM
[16] = second compound 1 µM, first compound 0.316 µM
[17] = second compound 1 µM, first compound 1 µM
[18] = second compound 3.16 µM, first compound 0.0316 µM
[19] = second compound 3.16 µM, first compound 0.1 µM
[20] = second compound 3.16 µM, first compound 0.316 µM
[21] = second compound 3.16 µM, first compound 1 µM
[22] = second compound 10 µM, first compound 0.0316 µM
[23] = second compound 10 µM, first compound 0.1 µM
[24] = second compound 10 µM, first compound 0.316 µM
[25] = second compound 10 µM, first compound 1 µM

- IC50 [1]: 3.65 µM
- IC50 [2]: 1.97 µM
- IC50 [3]: 3.45 µM
- IC50 [4]: 1.82 µM
- IC50 [5]: < 0.0316 µM
Structure (SMILES): CC1COCCN1c1cc(C2(S(C)(=N)=O)CC2)nc(-c2ccnc3[nH]ccc23)n1 (centres undefined) + Cc1cncc(-c2nc(NCCc3c[nH]c4ccccc34)c3ncn(C(C)C)c3n2)c1
- viability, T/C [6]: 81.4%
- viability, T/C [7]: 85.2%
- viability, T/C [8]: 71.1%
- viability, T/C [9]: 71.5%
- viability, T/C (second compound 0.1 µM, first compound 3.16 µM): 54.6%
- viability, T/C (second compound 0.1 µM, first compound 10 µM): 21.9%
- viability, T/C [10]: 87.9%
- viability, T/C [11]: 84.1%
- viability, T/C [12]: 75.1%
- viability, T/C [13]: 62.1%
- viability, T/C (second compound 0.316 µM, first compound 3.16 µM): 41.6%
- viability, T/C (second compound 0.316 µM, first compound 10 µM): 20.6%
- viability, T/C [14]: 89.9%
- viability, T/C [15]: 83.6%
- viability, T/C [16]: 70.3%
- viability, T/C [17]: 75.1%
- viability, T/C (second compound 1 µM, first compound 3.16 µM): 51.7%
- viability, T/C (second compound 1 µM, first compound 10 µM): 22.8%
- viability, T/C [18]: 54.7%
- viability, T/C [19]: 66.3%
- viability, T/C [20]: 65.6%
- viability, T/C [21]: 62.9%
- viability, T/C (second compound 3.16 µM, first compound 3.16 µM): 38.5%
- viability, T/C (second compound 3.16 µM, first compound 10 µM): 25.6%
- viability, T/C [22]: 40.5%
- viability, T/C [23]: 30.7%
- viability, T/C [24]: 39.2%
- viability, T/C [25]: 29.1%
- viability, T/C (second compound 10 µM, first compound 3.16 µM): 26.3%
- viability, T/C (second compound 10 µM, first compound 10 µM): 13.9%

- IC50 (curve of compound): > 10 µM and 2.07 µM and 2.2 µM
Structure (SMILES): CC1(C)CCC(CN2CCN(c3ccc(C(=O)NS(=O)(=O)c4ccc(NCC5CCOCC5)c([N+](=O)[O-])c4)c(Oc4cnc5[nH]ccc5c4)c3)CC2)=C(c2ccc(Cl)cc2)C1
- viability, T/C (compound 0.0316 µM): 113% and 85.5% and 86.1%
- viability, T/C (compound 0.1 µM): 97% and 69.1% and 76.1%
- viability, T/C (compound 0.316 µM): 95.7% and 108% and 96.4%
- viability, T/C (compound 1 µM): 101% and 68% and 72.1%
- viability, T/C (compound 3.16 µM): 92.2% and 38.2% and 39.1%
- viability, T/C (compound 10 µM): 85.7% and 14% and 10.1%

- IC50 [1]: 0.0413 µM
- IC50 [2]: 0.0315 µM
- IC50 [3]: 0.0354 µM
- IC50 [4]: 0.031 µM
- IC50 [5]: < 0.00316 µM
Structure (SMILES): CC1COCCN1c1cc(-c2ccnn2C)c2ccnc(-c3ccn[nH]3)c2n1 (centres undefined) + Cc1cncc(-c2nc(NCCc3c[nH]c4ccccc34)c3ncn(C(C)C)c3n2)c1
- viability, T/C (second compound 0.1 µM, first compound 0.00316 µM): 95.1%
- viability, T/C (second compound 0.1 µM, first compound 0.01 µM): 97%
- viability, T/C [6]: 57.8%
- viability, T/C [7]: 25.1%
- viability, T/C [8]: 25.7%
- viability, T/C [9]: 17.8%
- viability, T/C (second compound 0.316 µM, first compound 0.00316 µM): 79.9%
- viability, T/C (second compound 0.316 µM, first compound 0.01 µM): 94.4%
- viability, T/C [10]: 49.8%
- viability, T/C [11]: 26.8%
- viability, T/C [12]: 19.8%
- viability, T/C [13]: 18.7%
- viability, T/C (second compound 1 µM, first compound 0.00316 µM): 77.5%
- viability, T/C (second compound 1 µM, first compound 0.01 µM): 79.4%
- viability, T/C [14]: 51.6%
- viability, T/C [15]: 26.8%
- viability, T/C [16]: 23.9%
- viability, T/C [17]: 16.7%
- viability, T/C (second compound 3.16 µM, first compound 0.00316 µM): 76%
- viability, T/C (second compound 3.16 µM, first compound 0.01 µM): 66.2%
- viability, T/C [18]: 50%
- viability, T/C [19]: 32.1%
- viability, T/C [20]: 24.8%
- viability, T/C [21]: 16.9%
- viability, T/C (second compound 10 µM, first compound 0.00316 µM): 21%
- viability, T/C (second compound 10 µM, first compound 0.01 µM): 19%
- viability, T/C [22]: 16.5%
- viability, T/C [23]: 15.2%
- viability, T/C [24]: 12.2%
- viability, T/C [25]: 10.1%

- IC50 (curve of compound): < 0.0316 µM
Structure (SMILES): Nc1ccn(C2OC(CO)C(O)C2(F)F)c(=O)n1 (centres undefined)
- viability, T/C (compound 0.0316 µM): 27.5% and 32.2% and 32.9%
- viability, T/C (compound 0.1 µM): 26.6% and 28.1% and 35.2%
- viability, T/C (compound 0.316 µM): 24.2% and 25.8% and 36.1%
- viability, T/C (compound 1 µM): 24.8% and 27.9% and 31.6%
- viability, T/C (compound 3.16 µM): 23.1% and 24.4% and 33.5%
- viability, T/C (compound 10 µM): 21.6% and 21.2% and 32.3%
